Experimental data published in the METLIN SMRT retention time set (Domingo-Almenara et al. 2019).

Test: gradient 5% acetonitrile 3 min, to 50% in 2 min, to 85% in 15 min, held 3 min, 100 µL/min
Conditions: column: Zorbax Extend-C18 2.1 x 50 mm; eluents: water / acetonitrile, 0.1% formic acid
Procedure, shortened: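 Values are retention times taken from adduct peaks that software picked and an analyst inspected. The pure standards were run as mixtures of ~100 molecules on HPLC linked to a quadrupole time-of-flight mass spectrometer, in positive and negative ionization mode. A Zorbax Extend-C18 column (2.1 × 50 mm, 1.8 μm) was used at 100 μL/min with water and acetonitrile, each including 0.1% formic acid.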

| RP-LC retention time [s] | Structure (SMILES) |
| --- | --- |
| 928 | O=C(CN1C(=O)CC(c2cccs2)=Nc2ccccc21)Nc1ccc(F)cc1 |
| 1040 | O=C(Cn1cccc(-c2nc(-c3ccccc3)no2)c1=O)Nc1cc(C(F)(F)F)ccc1Cl |
| 583 | COc1nn(C)cc1C(=O)Nc1nnc(C)s1 |
| 878 | Cc1ccc(NC(=O)Cn2nc3c(Oc4cccc(F)c4)nccn3c2=O)c(F)c1 |
| 1010 | Cc1ccc(NC(=O)Cn2cccc2-c2nnc(C3CCC3)o2)cc1Cl |
| 584 | Cc1cc(N2CCN(C(=O)CCc3c[nH]c4ccccc34)CC2)nc2ccccc12 |
| 709 | CCOc1ccc(NC(=O)CCSc2nnc(C)s2)cc1 |
| 748 | O=C(Nc1cnc(N2CCCC2)nc1)c1ccc(F)c(F)c1 |
| 903 | COc1ccc(NC(=O)C2CCN(C(=O)c3nnc(C(=O)Nc4ccc(F)cc4)s3)CC2)cc1 |
| 866 | Cc1cccc(S(=O)(=O)N2CCCN(c3ccc(=O)n(-c4ccccc4)n3)CC2)c1 |
| 575 | CCCOc1ccc(CN2C[C@@H](CO)[C@H](c3ccncc3)C2)cc1 |
| 655 | O=C(CCc1c(-c2ccc(Cl)cc2)nc2ccccn12)NCc1ccco1 |
| 693 | CCn1cc(S(=O)(=O)Nc2ccc3nc(S(=O)(=O)CC)sc3c2)cn1 |
| 668 | COc1ccc(NC(=O)Nc2ccc(C)n(CC(=O)O)c2=O)cc1 |
| 890 | CC1=C(c2ccc(C)cc2)S(=O)(=O)N=C1N1CCCN(C(=O)NC2CCCCC2)CC1 |
| 1170 | CCOc1ccccc1-c1noc(Cn2c(=O)n(Cc3ccc(C)cc3)c(=O)c3sccc32)n1 |
| 649 | O=c1ccn(-c2ccccc2)nc1-c1nc(-c2ccncc2)no1 |

The remaining lines, values behind:

| Structure (SMILES) | RP-LC retention time [s] |
| --- | --- |
| COCCN1CC(CO)C2(CCN(Cc3ccc(OC)cc3OC)CC2)C1 (stereo unspecified) | 540 |
| O=C1CN=C(c2ccc[nH]2)c2cc(Cl)ccc2N1 | 650 |
| Cc1ccc(NC(=O)N2CCC(n3cnc4cccnc43)CC2)c(Cl)c1 | 676 |
| Cc1ccc(CNC(=O)COc2cc(C)nc(N3CCN(c4ccccc4)CC3)n2)cc1 | 922 |
| CC(=O)c1ccc(NC(=O)c2c[nH]c3ncccc23)cc1 | 652 |
| O=C(COc1ccc(Cl)cc1)Nc1ccccc1NC(=O)c1cccs1 | 887 |
| COc1cc2c(cc1OC)CC(=O)N(CCCN(C)C[C@H]1Cc3cc(OC)c(OC)cc31)CC2 | 677 |
| CCc1nc2c(c(=O)n1CC(=O)Nc1ccc(OC)cc1)CN(Cc1ccccc1)CC2 | 635 |
| CCOC(=O)C(CC)Oc1cc(O)c2c(=O)cc(-c3ccccc3)oc2c1 (stereo unspecified) | 760 |
| CC12CC(NC(=O)N1c1cccc(C(=O)NCc3cccnc3)c1)c1cc(Br)ccc1O2 (stereo unspecified) | 642 |
| O=C(c1ccc2nc[nH]c2c1)N1CCCN(c2cc(-c3ccc(Br)cc3)[nH]n2)CC1 | 625 |
| O=C(Cc1csc2nc(-c3ccccc3)cn12)N1CCCc2ccccc21 | 873 |
| COCCN1C(=O)c2ccccc2C(C(=O)NCc2ccc(OC)cc2)C12CCCC2 (stereo unspecified) | 785 |
| CCCCOc1ccc(-c2cc3c(N4CCN(CC)CC4)nccn3n2)cc1 | 775 |
| CN1C(=O)c2cc(C(=O)NC3CCCCC3)nn2CC1(C)C(=O)NCc1ccc(F)cc1 (stereo unspecified) | 776 |
| c1cc(-c2noc(C3CCOC3)n2)cc(N2CCOCC2)n1 (stereo unspecified) | 651 |
| O=C(Nc1ccc(N2CCN(C3CCCCC3)C2=O)nc1)c1ccc(F)cc1 | 926 |
| O=C(NCc1ccccc1Br)c1cn2c(n1)COCC2 | 680 |
| COc1cc(NC(=O)NCC(c2cccnc2)c2cn(C)c3ccccc23)cc(OC)c1OC (stereo unspecified) | 661 |
